Consider 33 compounds from patent US11559537B2, “Combination therapies using caspase-1 dependent anticancer agents and PGE2 antagonists” (Trustees of Tufts College, priority 2017, dated 2023).

Where “and” joins values, the source holds several entries; their conditions need not be identical. Identical values can stand only once.

The target in one assay is recombinant human FAP (Homo sapiens (Human), UniProt Q12884). In words: In vitro inhibition assay, fibroblast activation protein. Format: biochemical. The note with it: Z-Gly-Pro-AMC substrate.
A further assay has as its target recombinant human DPPIV (Homo sapiens (Human), UniProt P27487). In words: In vitro inhibition assay, dipeptidyl peptidase IV. Format: biochemical. The note with it: Gly-Pro-AMC substrate, read-out: DPP4.
The next assay addresses recombinant human DPPII (Homo sapiens (Human), UniProt Q9UHL4). In words: In vitro inhibition assay, dipeptidyl peptidase II. Format: biochemical. The conditions noted are these: Lys-Pro-AMC substrate, read-out: DPP2.
The target in a further assay is recombinant human PREP (Homo sapiens (Human), UniProt P48147). In words: In vitro inhibition assay, prolyl oligopeptidase. The conditions noted are these: Z-Gly-Pro-AMC substrate. Format: biochemical.
Another assay addresses recombinant human DPP8 (Homo sapiens (Human), UniProt Q6V1X1). In words: In vitro inhibition assay, dipeptidyl peptidase 8. The format is biochemical. The note with it: recombinant human DPP8, Gly-Pro-AMC substrate.
Another assay addresses recombinant human DPP9 (Homo sapiens (Human), UniProt Q86TI2). In words: In vitro inhibition assay, dipeptidyl peptidase 9. The format is biochemical. The conditions noted are these: recombinant human DPP9, Gly-Pro-AMC substrate.
Assay [1] relates to MB49 murine urothelial carcinoma. In words: MB49 efficacy studies. The format is in vivo, mouse.
The conditions of assay [2]: cited from earlier work.

Sequence of recombinant human DPP9 (Q86TI2 whole entry): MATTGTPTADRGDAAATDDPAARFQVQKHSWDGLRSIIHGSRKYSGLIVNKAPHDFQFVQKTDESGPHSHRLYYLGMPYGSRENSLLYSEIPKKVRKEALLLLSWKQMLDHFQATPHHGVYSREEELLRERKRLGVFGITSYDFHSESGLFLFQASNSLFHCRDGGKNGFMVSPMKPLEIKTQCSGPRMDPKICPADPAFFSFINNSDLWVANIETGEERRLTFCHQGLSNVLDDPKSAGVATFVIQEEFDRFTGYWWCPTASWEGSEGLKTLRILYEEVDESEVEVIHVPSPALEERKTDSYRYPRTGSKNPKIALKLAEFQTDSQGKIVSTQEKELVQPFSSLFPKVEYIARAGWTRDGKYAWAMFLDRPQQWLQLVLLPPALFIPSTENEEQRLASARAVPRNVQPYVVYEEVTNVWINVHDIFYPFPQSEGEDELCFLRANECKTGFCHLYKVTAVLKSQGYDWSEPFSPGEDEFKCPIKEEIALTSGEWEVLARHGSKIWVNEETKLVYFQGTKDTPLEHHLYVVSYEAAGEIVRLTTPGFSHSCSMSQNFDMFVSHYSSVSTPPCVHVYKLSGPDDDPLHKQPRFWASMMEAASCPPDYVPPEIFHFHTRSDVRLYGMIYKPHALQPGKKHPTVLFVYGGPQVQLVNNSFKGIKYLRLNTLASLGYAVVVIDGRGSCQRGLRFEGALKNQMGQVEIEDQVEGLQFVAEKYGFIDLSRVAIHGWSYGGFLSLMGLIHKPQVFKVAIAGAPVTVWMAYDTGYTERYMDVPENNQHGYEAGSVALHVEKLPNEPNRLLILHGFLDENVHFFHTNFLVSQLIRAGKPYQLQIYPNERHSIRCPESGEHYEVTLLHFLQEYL
Sequence of recombinant human DPPIV (P27487 whole entry): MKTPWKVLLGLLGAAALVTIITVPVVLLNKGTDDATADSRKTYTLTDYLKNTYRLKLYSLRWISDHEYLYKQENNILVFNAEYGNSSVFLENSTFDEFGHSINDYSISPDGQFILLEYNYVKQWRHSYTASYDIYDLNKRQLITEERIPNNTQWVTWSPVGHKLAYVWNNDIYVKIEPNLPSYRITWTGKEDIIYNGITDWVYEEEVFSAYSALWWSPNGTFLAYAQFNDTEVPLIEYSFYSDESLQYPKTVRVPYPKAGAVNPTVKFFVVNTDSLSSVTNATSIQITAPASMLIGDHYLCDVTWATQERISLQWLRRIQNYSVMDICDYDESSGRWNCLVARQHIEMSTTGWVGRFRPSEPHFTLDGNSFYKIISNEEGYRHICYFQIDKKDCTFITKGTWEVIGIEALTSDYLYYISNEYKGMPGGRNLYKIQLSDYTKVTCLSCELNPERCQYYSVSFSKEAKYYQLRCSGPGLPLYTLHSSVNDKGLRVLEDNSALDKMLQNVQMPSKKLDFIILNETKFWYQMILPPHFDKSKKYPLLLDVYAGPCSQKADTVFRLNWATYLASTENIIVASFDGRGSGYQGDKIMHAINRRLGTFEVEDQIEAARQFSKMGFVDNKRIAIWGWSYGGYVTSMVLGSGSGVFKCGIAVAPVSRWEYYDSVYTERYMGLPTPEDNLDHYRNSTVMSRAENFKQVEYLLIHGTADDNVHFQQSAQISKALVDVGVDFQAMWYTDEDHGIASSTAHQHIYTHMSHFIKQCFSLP
Sequence of recombinant human DPP8 (Q6V1X1 whole entry): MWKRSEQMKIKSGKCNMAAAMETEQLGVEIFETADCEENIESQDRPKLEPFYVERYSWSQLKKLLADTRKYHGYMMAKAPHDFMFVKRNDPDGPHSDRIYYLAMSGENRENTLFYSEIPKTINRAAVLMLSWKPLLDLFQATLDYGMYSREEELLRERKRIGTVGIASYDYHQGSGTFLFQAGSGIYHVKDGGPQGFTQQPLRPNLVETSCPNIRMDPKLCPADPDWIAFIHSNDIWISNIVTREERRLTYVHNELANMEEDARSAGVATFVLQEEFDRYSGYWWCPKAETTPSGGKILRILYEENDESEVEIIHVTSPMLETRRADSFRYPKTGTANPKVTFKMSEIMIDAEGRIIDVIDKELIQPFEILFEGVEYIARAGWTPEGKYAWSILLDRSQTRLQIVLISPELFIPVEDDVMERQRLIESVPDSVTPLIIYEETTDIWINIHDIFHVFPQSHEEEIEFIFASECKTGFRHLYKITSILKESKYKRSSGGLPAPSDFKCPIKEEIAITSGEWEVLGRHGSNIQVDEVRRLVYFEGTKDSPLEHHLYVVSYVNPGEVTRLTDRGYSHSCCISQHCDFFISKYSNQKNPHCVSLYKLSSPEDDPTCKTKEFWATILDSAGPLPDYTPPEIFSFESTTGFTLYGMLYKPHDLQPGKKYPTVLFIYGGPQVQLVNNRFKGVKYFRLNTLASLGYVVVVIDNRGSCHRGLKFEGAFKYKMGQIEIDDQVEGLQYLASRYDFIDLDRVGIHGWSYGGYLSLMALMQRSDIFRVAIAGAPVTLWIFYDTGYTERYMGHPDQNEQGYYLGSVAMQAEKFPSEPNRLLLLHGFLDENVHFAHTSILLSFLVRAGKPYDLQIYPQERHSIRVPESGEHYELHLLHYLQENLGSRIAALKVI
Sequence of recombinant human FAP (Q12884 whole entry): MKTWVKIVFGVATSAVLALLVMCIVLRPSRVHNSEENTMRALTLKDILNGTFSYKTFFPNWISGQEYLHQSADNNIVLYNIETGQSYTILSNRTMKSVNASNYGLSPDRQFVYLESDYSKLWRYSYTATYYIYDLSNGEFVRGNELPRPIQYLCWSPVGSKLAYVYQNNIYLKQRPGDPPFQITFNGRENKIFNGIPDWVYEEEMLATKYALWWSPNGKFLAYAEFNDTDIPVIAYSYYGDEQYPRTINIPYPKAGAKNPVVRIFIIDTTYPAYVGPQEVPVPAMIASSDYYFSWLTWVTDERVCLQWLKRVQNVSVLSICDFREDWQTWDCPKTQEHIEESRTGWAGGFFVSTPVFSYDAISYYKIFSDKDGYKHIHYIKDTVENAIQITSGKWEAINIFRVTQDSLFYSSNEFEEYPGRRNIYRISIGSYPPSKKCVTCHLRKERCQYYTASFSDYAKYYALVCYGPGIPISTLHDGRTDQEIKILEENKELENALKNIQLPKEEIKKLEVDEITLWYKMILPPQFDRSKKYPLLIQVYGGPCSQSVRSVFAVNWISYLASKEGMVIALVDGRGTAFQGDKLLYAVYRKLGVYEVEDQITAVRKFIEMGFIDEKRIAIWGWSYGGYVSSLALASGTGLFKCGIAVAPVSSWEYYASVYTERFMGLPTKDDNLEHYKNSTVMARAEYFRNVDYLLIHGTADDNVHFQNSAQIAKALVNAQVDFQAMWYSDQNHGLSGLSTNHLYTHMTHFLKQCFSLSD
Sequence of recombinant human PREP (P48147 whole entry): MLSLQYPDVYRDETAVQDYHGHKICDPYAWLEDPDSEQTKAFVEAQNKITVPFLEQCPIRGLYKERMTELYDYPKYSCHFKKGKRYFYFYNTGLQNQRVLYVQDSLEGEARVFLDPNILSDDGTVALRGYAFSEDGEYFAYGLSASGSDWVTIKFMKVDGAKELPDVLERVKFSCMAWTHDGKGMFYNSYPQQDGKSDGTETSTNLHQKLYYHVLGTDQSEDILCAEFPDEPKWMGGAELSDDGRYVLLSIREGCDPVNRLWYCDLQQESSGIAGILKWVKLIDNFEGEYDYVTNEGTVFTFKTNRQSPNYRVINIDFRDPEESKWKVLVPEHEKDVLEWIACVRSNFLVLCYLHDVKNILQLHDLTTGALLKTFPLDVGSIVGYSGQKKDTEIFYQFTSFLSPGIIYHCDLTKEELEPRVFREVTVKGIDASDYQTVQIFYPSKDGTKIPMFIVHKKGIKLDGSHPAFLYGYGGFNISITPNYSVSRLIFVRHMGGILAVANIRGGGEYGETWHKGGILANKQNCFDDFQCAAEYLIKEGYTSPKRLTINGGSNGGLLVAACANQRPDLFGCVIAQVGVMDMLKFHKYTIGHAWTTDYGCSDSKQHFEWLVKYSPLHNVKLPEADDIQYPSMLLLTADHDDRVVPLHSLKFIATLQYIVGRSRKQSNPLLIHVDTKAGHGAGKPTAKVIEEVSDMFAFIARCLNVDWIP

For `C[C@H](N)C(=S)N1CCC[C@H]1B(O)O` [compound 2243], the IC50 on recombinant human FAP was determined as 0.13 µM.

As to `CC(C)[C@H](N)C(=O)N1C[C@@H](O)C[C@H]1B(O)O` [4312 S], the IC50 at recombinant human DPPIV worked out at 0.009 µM; at recombinant human DPPII, 0.61 µM.

`CN(C)C(=O)C[C@H](N)C(=O)N1Cc2ccc(F)cc2C1` [compound 5317]: the IC50 was 54.8 µM at recombinant human DPPIV, 22.1 µM at recombinant human DPPII, greater than 100 µM at recombinant human FAP and greater than 100 µM at recombinant human PREP.

`CC[C@@H](C)[C@H](N)C(=O)N1Cc2ccccc2[C@H]1B(O)O` [1049 C]: the IC50 at recombinant human DPPII was 0.095 µM; at recombinant human PREP, greater than 100 µM.

As to `CC(C)[C@H](N)C(=O)N1CCC[C@H]1C(=O)CO` [compound 5298], the IC50 at recombinant human DPPIV was 0.0045 µM; at recombinant human DPPII it was 4.18 µM; on recombinant human FAP, greater than 100 µM; on recombinant human PREP, greater than 100 µM.

`N[C@H](C(=O)N1Cc2ccc(F)cc2C1)C1CCCC1` [compound 5333]: the IC50 at recombinant human DPPII is 26.5 µM; at recombinant human FAP it was greater than 100 µM.

As to `C[C@H](N)C(=O)N1CCC[C@H]1B(O)O` [compound 1129], the IC50 at recombinant human DPPII is 0.0014 µM and 0.001 µM.

With `O=C([C@@H]1CCCCN1)N1Cc2ccc(F)cc2C1` [compound 5323], the IC50 on recombinant human DPP8 is 0.862 µM; on recombinant human DPP9, 0.305 µM; at recombinant human DPPIV, 60.3 µM; on recombinant human DPPII, greater than 100 µM; at recombinant human FAP, greater than 100 µM; on recombinant human PREP, greater than 100 µM.

In the case of `CC[C@H](C)[C@H](N)C(=O)N1CCC[C@H]1B(O)O` [compound 4316], the IC50 at recombinant human DPPIV came out at 0.0012 µM; on recombinant human DPPII, 0.0078 µM.

`CC[C@H](N)C(=O)N1CCC[C@H]1B(O)O` [compound 5466]: the IC50 on recombinant human DPPII was found to be 0.0029 µM.

`NC1(C(=O)N2CCSC2)CCNCC1` [compound 5554]: the IC50 at recombinant human DPP8 was greater than 100 µM; at recombinant human DPP9, greater than 100 µM; at recombinant human DPPIV, greater than 100 µM; at recombinant human DPPII, 36.5 µM; at recombinant human FAP, greater than 100 µM; on recombinant human PREP, 25.1 µM.

Take `CC(C)[C@@H](C(=O)N1CCC[C@H]1B(O)O)N(C)C` [2504 C]: the IC50 on recombinant human DPPII is 10 µM.

For `N[C@@H](Cc1ccccc1)C(=O)N1CCC[C@H]1B(O)O` [compound 1336], the IC50 at recombinant human DPPIV worked out at 0.002 µM.

Regarding `CC[C@@H](C)C(N)C(=O)N1Cc2ccc(F)cc2C1` (some centres unmarked) [compound 5291, reference compound], the IC50 on recombinant human FAP and at recombinant human PREP was greater than 100 µM throughout.

Consider `NCCCC[C@H](N)C(=O)N1Cc2ccc(F)cc2C1` [compound 5325], for which the IC50 at recombinant human DPP8 is 0.123 µM; at recombinant human DPPIV it was greater than 100 µM; on recombinant human DPPII, 0.842 µM; at recombinant human FAP, greater than 100 µM; at recombinant human PREP it was greater than 100 µM.

On to `O=C([C@@H]1CCCN1)N1CCC[C@H]1B(O)O` [compound 1181], for which the results for the IC50 at recombinant human DPPIV and on recombinant human DPPII were 0.0013 µM and 0.054 µM, respectively.

Turning to `N[C@H](C(=O)N1Cc2ccccc2C1)C1CCCCC1` [3360 C], the IC50 on recombinant human DPPIV was 1.38 µM.

Take `NCCCC[C@H](N)C(=O)N1CCC[C@H]1B(O)O` [compound 1700]: the IC50 at recombinant human DPPIV was 0.0013 µM.

Take `NC(=O)C[C@H](N)C(=O)N1Cc2ccc(F)cc2C1` [compound 5316]: the IC50 is 4.11 µM at recombinant human DPP8; greater than 100 µM at recombinant human DPPIV; 92.2 µM at recombinant human DPPII; greater than 100 µM at recombinant human FAP; greater than 100 µM at recombinant human PREP.

In the case of `N[C@H](C(=O)N1Cc2ccc(F)cc2C1)C1CCCCC1` [compound 5311], the IC50 at recombinant human DPP8 is 81 µM; on recombinant human DPPIV it was greater than 100 µM; on recombinant human DPPII, 63.8 µM; at recombinant human FAP, greater than 100 µM; at recombinant human PREP it was greater than 100 µM.

`CC[C@@H](C)[C@H](N)C(=O)N1CCC[C@H]1B(O)O` [compound 4317]: the IC50 on recombinant human DPPIV came out at 0.002 µM; on recombinant human DPPII, 0.012 µM.

On to `Cc1ccc(-c2cc(C(F)(F)F)nn2-c2ccc(S(N)(=O)=O)cc2)cc1` [celecoxib], for which the “tumor growth rates compared to control (vehicle)” value in assay [1] (celecoxib alone, various concentrations, MB49 tumor bearing mice) is reported as “no observed differences in tumor growth rates compared to control”.

`CC(C)(C)[C@H](N)C(=O)N1CCC[C@H]1C#N` [compound 9987]: the IC50 on recombinant human DPPII and on recombinant human PREP was greater than 100 µM throughout.

As to `NC1(C(=O)N2Cc3ccccc3C2)CCNCC1` [compound 5553], the IC50 on recombinant human DPP8 was greater than 100 µM; on recombinant human DPPIV, greater than 100 µM; at recombinant human DPPII, 0.978 µM; on recombinant human FAP it was greater than 100 µM.

`CC(C)[C@H](N)C(=O)N1C[C@H](O)C[C@H]1B(O)O` [compound 4312]: the IC50 was found to be 0.002 µM on recombinant human DPPIV and 6.4 µM on recombinant human DPPII.

For the compound `CC(C)[C@H](N)C(=O)N1CCC[C@H]1B(O)O` [compound 2054, Valine-boroProline], in assay [1] (20 microgram dose of Val-boroPro, individual animal curves), the “tumor regression in combination with celecoxib” value was “facilitated the achievement of tumor regression”. Moreover, in assay [1] (MB49 tumor bearing mice, Val-boroPro + celecoxib), the “antitumor activity in combination with celecoxib” value is “increased the antitumor activity of Val-boroPro markedly (statistically significantly) and in a dose-dependent manner”. Besides, in assay [2] (in combination with standard cytotoxic chemotherapy), the “efficacy in phase II trials” value is “did not meet the endpoints for efficacy”. Also, in assay [2] (phase I, talabostat and rituximab, rituximab-resistant lymphoma), the partial response is on record as 3 patients. Moreover, the “patients with improvement in grade 3 neutropenia” value in assay [2] (phase I, thirteen patients, concomitant immunosuppressive chemotherapy) is listed as “five”.

Consider `NC1(C(=O)N2Cc3ccc(F)cc3C2)CCNCC1` [compound 5552], for which the IC50 was greater than 100 µM at recombinant human DPP8, greater than 100 µM on recombinant human DPP9, greater than 100 µM on recombinant human DPPII and 41.1 µM on recombinant human FAP.

In the case of `N[C@@H](CCC(=O)O)C(=O)N1CCC[C@H]1B(O)O` [compound 8120], the IC50 on recombinant human DPPIV came out at 0.0011 µM; on recombinant human DPPII, 0.012 µM.

As for `N[C@H](C(=O)N1CCC[C@H]1B(O)O)C1CCCCC1` [compound 1797], the IC50 on recombinant human DPPIV amounted to 0.0012 µM; on recombinant human DPPII, 0.0021 µM.

Take `CC(C)C[C@H](N)C(=O)N1CCC[C@H]1B(O)O` [compound 1454]: the IC50 on recombinant human DPPIV stood at 0.0016 µM; at recombinant human DPPII it was 0.001 µM; at recombinant human FAP, 0.15 µM.

`CC(C)(C)[C@H](N)C(=O)N1Cc2ccc(F)cc2C1` [compound 5322]: the IC50 was 36.8 µM at recombinant human DPPII, greater than 100 µM at recombinant human FAP and greater than 100 µM on recombinant human PREP.

As for `CN(CB(O)O)C(=O)[C@@H](N)CCC(=O)O` [compound 2408], the figures for the IC50 at recombinant human DPPII and on recombinant human FAP were 1.7 µM and 11 µM, respectively.

On to `CC(C)[C@H](N)C(=O)N1Cc2ccc(F)cc2C1` [compound 5321], for which the values for the IC50 at recombinant human DPPII, on recombinant human FAP and at recombinant human PREP were 44.9 µM, greater than 100 µM and greater than 100 µM, respectively.
